{"source": "patent US20200231562A1", "about": "“NOVEL MACROLIDE ANTIBIOTICS” (HELMHOLTZ-ZENTRUM FÜR INFEKTIONSFORSCHUNG GMBH, priority 2014, published 2020)", "key": {"[1]": {"tested_on": "leukemic Mono Mac 6 cells", "test": "MTT assay, cytotoxic activity", "type": "cell-based, human", "settings": "incubation 24 or 48 hours", "procedure": "(§1) The cytotoxic activity of gulmirecin A (3) and gulmirecin B (4) against human cells was evaluated in the well-established MTT assay using primary monocytes from human peripheral blood as well as transformed lung epithelial cell A-549 cell and leukemic Mono Mac 6 cells. Furthermore, 3 and 4 were tested against K-562, HUVEC, and HeLa cells.\n(§2) The human monocytic cell line Mono Mac 6 was cultured in RPMI 1640 medium supplemented with FCS (10%, v/v), penicillin (100 U/ml), streptomycin (100 μg/ml), insulin (10 μg/ml), oxaloacetic acid (1 mM), sodium pyruvate (1 mM), and 1× non-essential amino acids at 37° C. and 5% CO2. A-549 cells (DSM ACC-107) were cultured in DMEM high glucose (4.5 g/l) medium supplemented with FCS (10% v/v), penicillin (100 U/ml) and streptomycin (100 μg/ml) at 37° C. in a 5% CO2 incubator. K-562 (DSM ACC 10) and HeLa cells (DSM ACC 57) were grown in RPMI 1640, whereas cells of HUVEC (ATCC CRL-1730) were cultured in DMEM medium. The respective media were supplemented with ultraglutamine 1 (10 ml/l), gentamicin sulfate (500 μl/l), and FCS (10% v/v).\nCells (3×10^5 Mono Mac 6, 1×10^5 A-549 cells, or 2×10^6 monocytes per well) were seeded in a 96-well plate in the respective medium (100 μl/well). Monocytes were allowed to adhere for 1.5 hours (37° C., 5% CO2) prior to treatment. […] Then, 20 μl of thiazolyl blue tetrazolium bromide (MTT, 5 mg/ml PBS) were added, and the incubation was continued at 37° C., 5% CO2 until blue staining of the vehicle control. Formazan formation was stopped by adding 100 μl of lysis buffer (SDS, 10%, w/v in 20 mM HCl) and samples were shaken overnight. Absorbance of each well was measured at 570 nm in a Multiskan™ microplate spectrophotometer (Thermo Scientific)."}, "[2]": {"tested_on": "primary monocytes from human peripheral blood", "test": "MTT assay, cytotoxic activity", "type": "cell-based", "settings": "incubation 24 or 48 hours", "procedure": "as §1\nHuman primary monocytes were isolated from leukocyte concentrates, obtained from the Institute of Transfusion Medicine at the University Hospital Jena, Germany. The concentrates were prepared from the blood of healthy adult human donors who had not taken any anti-inflammatory medication for the 10 days prior to blood donation, as described. In brief, freshly withdrawn peripheral blood was pretreated with citrate-phosphate-dextrose solution as anticoagulant and processed with the 2C+ protocol of the Atreus Whole Blood Processing System (Terum BCT). Peripheral blood mononuclear cells (PBMC) were isolated by dextran sedimentation and centrifugation on LSM 1077 lymphocyte separation medium (PAA Laboratories). For isolation of monocytes, the PBMC were washed twice with ice-cold phosphate buffered saline (PBS) and plated (density 2×10^7 cells/ml) in culture flasks (Greiner Bio-One) containing PBMC medium (RPMI 1640 medium supplemented with 100 U/ml penicillin, 100 μg/ml streptomycin and 2 mM L-glutamine) for 1.5 hours at 37° C., 5% CO2. Non-adherent cells were removed; adherent monocytes were scraped, washed with ice-cold PBS and resuspended in ice-cold PBS with a purity of >85%, defined by forward- and side-light scatter properties and detection of the CD14 surface molecule by flow cytometry (BD FACS Calibur). […]\nCells (3×10^5 Mono Mac 6, 1×10^5 A-549 cells, or 2×10^6 monocytes per well) were seeded in a 96-well plate in the respective medium (100 μl/well). […] Absorbance of each well was measured at 570 nm in a Multiskan™ microplate spectrophotometer (Thermo Scientific)."}, "[3]": {"tested_on": "K-562 cells", "test": "Antiproliferative effect (CellTiter-Blue)", "type": "cell-based, human", "settings": "K-562, at a concentration of 100 μM", "procedure": "as §2\nThe test substances were dissolved in methanol before being diluted in DMEM. The adherent cells were harvested at the logarithmic growth phase after soft trypsinization using 0.25% trypsin in PBS containing 0.02% EDTA. For each experiment, approximately 10,000 cells were seeded with 0.1 ml culture medium per well of the 96-well microplates. […] In case of K-562 cells, the number of viable cells in every well was determined using the CellTiter-Blue1 assay. […] The optical densities were measured at 660 nm in a SUNRISE microplate reader (TECAN)."}, "[4]": {"tested_on": "methicillin-resistant S. aureus (MRSA)", "test": "Bouillon dilution assay (MIC90)", "type": "cell-based", "settings": "Staphylococcus aureus, tryptic soy broth, 37° C., 16 h", "procedure": "(§3) Before incubation, 3 was added in decreasing concentrations ([…] to 12.5 μg/ml). After incubation, the OD600 was measured. The experiment was run in triplicate. Ciprofloxacin was used as a positive control."}, "[5]": {"tested_on": "S. auricularis A", "test": "Bouillon dilution assay (MIC90)", "type": "cell-based", "settings": "Staphylococcus auricularis, tryptic soy broth, 37° C., 16 h", "procedure": "as §3"}}, "data": [{"compound": "C/C=C(/C)[C@H]1C/C=C(\\C)[C@@H](O[C@H]2O[C@H](CO)[C@@H](O)[C@@H]2O)[C@H](O)C(=O)CC[C@H](C)C(=O)O1", "note": "[Compound 4, gulmirecin B]", "values": [{"measurement": "cell viability / cytotoxicity (MTT)", "setting": "[1]", "value": "no reduction in cell viability at the concentrations required for antibacterial activity"}, {"measurement": "cell viability / cytotoxicity (MTT)", "setting": "[2]", "value": "no reduction in cell viability at the concentrations required for antibacterial activity"}, {"measurement": "inhibition of proliferation", "setting": "[3]", "value": "did not inhibit"}]}, {"compound": "C/C=C(/C)[C@H]1C/C=C(\\C)[C@@H](O[C@H]2O[C@H](CO)[C@@H](O)[C@@H]2O)[C@H](OC(=O)CC(C)C)C(=O)C[C@@H](O)[C@H](C)C(=O)O1", "note": "[Compound 3, gulmirecin A]", "values": [{"measurement": "MIC90", "setting": "[4]", "value": 23.1, "unit": "µM"}, {"measurement": "MIC90", "setting": "[5]", "value": 22.5, "unit": "µM"}, {"measurement": "cell viability / cytotoxicity (MTT)", "setting": "[1]", "value": "no reduction in cell viability at the concentrations required for antibacterial activity"}, {"measurement": "cell viability / cytotoxicity (MTT)", "setting": "[2]", "value": "no reduction in cell viability at the concentrations required for antibacterial activity"}, {"measurement": "inhibition of proliferation", "setting": "[3]", "value": "did not inhibit"}]}]}
